Test results published in patent US9169241B2, “Quinolinyloxyphenylsulfonamides” (Max-Planck-Gesellschaft Zur Forderung der Wissenschaften …, priority 2009, dated 2015).
Where two headings read alike, the source gives them in different places.

Assays:
[1] = test system: Hs578T; experiment: Matrigel outgrowth assay/branching assay; type: cell-based; conditions: Homo sapiens, Hs-578T; HS578T cell line; Table Ib; read-out: Total branching inhibition in Matrigel HS578T
In short: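 Cells (5000/well) were seeded onto polymerized 3 mg/ml Matrigel with compound at 3.125, 1.56 or 0.78 μM, or DMSO. Imaging by inverted microscopy at 48, 72 and 96 h scored invasive branching. Only concentrations giving total branching inhibition counted as positive.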

[2] = test system: U118; experiment: Cell vitality assay (ATP assay, CellTiter-Glo); type: cell-based; conditions: U118, 72 h; Table IIa; read-out: IC50 ATP-Assay after 72 h U118
In short: (§1)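 Steps: seed 1000 cells per well; add compound (0.195–12.5 μM, 7 points) or DMSO; incubate 72 h; equilibrate to room temperature ~30 min; add reagent, shake 2 min, stand 10 min; read luminescence. IC50 relative to DMSO-control ATP.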

[3] = test system: Hs578T; experiment: Cell vitality assay (ATP assay, CellTiter-Glo); type: cell-based; conditions: Homo sapiens, Hs-578T, 72 h
In short: as §1

[4] = test system: SF126; experiment: Cell vitality assay (ATP assay, CellTiter-Glo); type: cell-based; conditions: Homo sapiens, SF-126; SF126, 72 h; Table IIa; read-out: IC50 ATP-Assay after 72 h SF126
In short: as §1

[5] = test system: U118; experiment: Apoptosis assay (Cellomics, nucleus condensation); type: cell-based; conditions: Table III, read-out: Apoptosis induction in U118
In short: (§2)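 Apoptosis scored by automated microscopy of Hoechst-stained live nuclei, 24 and 48 h after treatment with 0.39–12.5 μM compound or DMSO.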

[6] = test system: Hs578T; experiment: Apoptosis assay (Cellomics, nucleus condensation); type: cell-based; conditions: Homo sapiens, Hs-578T, Table III, read-out: Apoptosis induction in Hs578T
In short: as §2

[7] = test system: U138; experiment: Apoptosis assay (Cellomics, nucleus condensation); type: cell-based; conditions: Table III, read-out: Apoptosis induction in U138
In short: as §2

[8] = test system: SF763; experiment: Apoptosis assay (Cellomics, nucleus condensation); type: cell-based; conditions: Table III, read-out: Apoptosis induction in SF763
In short: as §2

[9] = test system: C8161; experiment: Apoptosis assay (Cellomics, nucleus condensation); type: cell-based; conditions: Homo sapiens, Table III, read-out: Apoptosis induction in C8161
In short: as §2

[10] = test system: SF126; experiment: Apoptosis assay (Cellomics, nucleus condensation); type: cell-based; conditions: Homo sapiens, SF-126, Table III, read-out: Apoptosis induction in SF126
In short: as §2

[11] = test system: indicated cell line; experiment: Wound healing migration assay (Table IV); type: cell-based; conditions: compounds at 12.5, 6.25, 3.125 μM, 48 h-72 h
In short: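 Cells seeded at 150000/24 well, grown to monolayer overnight, scratched with a pipette tip, then treated with compound at 12.5, 6.25 or 3.125 μM versus DMSO. Stopped by crystal violet fixation at 48-72 h once control wounds closed; IC50 taken as 50% wound size between t0 and t48 or t72.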

[12] = Hs578T, Table IIa, read-out: IC50 ATP-Assay after 72 h Hs578T
[13] = Homo sapiens, C8161 cells, read-out: IC50 Wound healing Assay C8161
[14] = SF763 cells, read-out: IC50 Wound healing Assay SF763
[15] = HS578T cell line, Table Ib, read-out: IC50 ATP-Assay HS578T after 72 h
[16] = Homo sapiens, A 172, A172 cells, read-out: IC50 Wound healing Assay A172
[17] = Homo sapiens, SF-126, SF126 cells, read-out: IC50 Wound healing Assay SF126
[18] = U118 cells, read-out: IC50 Wound healing Assay U118

| SMILES | IC50 [1] | melting point | IC50 [2] | IC50 [3, 12] | IC50 [4] | IC50 [5] | IC50 [6] | IC50 [7] | IC50 [8] | IC50 [9] | IC50 [10] | IC50 [11, 13] | IC50 [11, 14] | IC50 [3, 15] | IC50 [11, 16] | IC50 [11, 17] | IC50 [11, 18] |
| --- | --- | --- | --- | --- | --- | --- | --- | --- | --- | --- | --- | --- | --- | --- | --- | --- | --- |
| COc1cc2c(Oc3ccc(NS(=O)(=O)c4cccc(C)c4)cc3F)ccnc2cc1OCCCN1CCCC(C)C1 (stereo not shown) [Example 70, N-(3-Fluoro-4-{6-methoxy-7-[3-(3-methyl-piperidin-1-yl)-propoxy]-quinolin-4-yloxy}-phenyl)-3-methyl-benzenesulfonamide] | ≤ 10 µM | 168 to 170 °C | ≤ 12.5 µM | 12.5 to 50 µM | ≤ 12.5 µM | ≤ 12.5 µM | ≤ 12.5 µM | ≤ 12.5 µM | ≤ 12.5 µM | ≤ 12.5 µM | ≤ 12.5 µM | 12.5 to 50 µM | ≤ 12.5 µM |  |  |  |  |
| COc1cc2c(Oc3ccc(NS(=O)(=O)c4ccc(F)c(C#N)c4)cc3F)ccnc2cc1OCCCN1CCCC(C)C1 (stereo not shown) [Example 72, 3-Cyano-4-fluoro-N-(3-fluoro-4-{6-methoxy-7-[3-(3-methyl-piperidin-1-yl)-propoxy]-quinolin-4-yloxy}-phenyl)-benzenesulfonamide] | ≤ 10 µM | 125 to 127 °C | 12.5 to 50 µM | 12.5 to 50 µM | 12.5 to 50 µM | ≤ 12.5 µM | ≤ 12.5 µM | 12.5 to 50 µM | ≤ 12.5 µM | ≤ 12.5 µM | 12.5 to 50 µM | ≤ 12.5 µM | ≤ 12.5 µM |  |  |  |  |
| COc1cc2c(Oc3ccc(NS(=O)(=O)c4c(F)cccc4F)cc3F)ccnc2cc1OCCCN1CCOCC1 [Example 77, 2,6-Difluoro-N-{3-fluoro-4-[6-methoxy-7-(3-morpholin-4-yl-propoxy)-quinolin-4-yloxy]-phenyl}-benzenesulfonamide] | ≤ 10 µM | 190 to 192 °C | ≤ 12.5 µM | ≤ 12.5 µM | 12.5 to 50 µM | ≤ 12.5 µM | ≤ 12.5 µM | ≤ 12.5 µM | ≤ 12.5 µM | ≤ 12.5 µM | ≤ 12.5 µM | ≤ 12.5 µM | ≤ 12.5 µM | ≤ 12.5 µM | ≤ 12.5 µM | ≤ 12.5 µM | ≤ 12.5 µM |
| COc1cc2c(Oc3ccc(NS(=O)(=O)c4ccccc4C(F)(F)F)cc3Cl)ccnc2cc1OCCCN1CCN(C)CC1 [Example 87, N-(3-Chloro-4-{6-methoxy-7-[3-(4-methyl-piperazin-1-yl)-propoxy]-quinolin-4-yloxy}-phenyl)-2-trifluoromethyl-benzenesulfonamide] | ≤ 10 µM | 103 to 105 °C | ≤ 12.5 µM | 12.5 to 50 µM | ≤ 12.5 µM | ≤ 12.5 µM | ≤ 12.5 µM | 12.5 to 50 µM | ≤ 12.5 µM | ≤ 12.5 µM | ≤ 12.5 µM | 12.5 to 50 µM | ≤ 12.5 µM | 12.5 to 50 µM | ≤ 12.5 µM | ≤ 12.5 µM | ≤ 12.5 µM |
| COc1cc2c(Oc3ccc(NS(=O)(=O)c4ccccc4C(F)(F)F)cc3F)ccnc2cc1OCC(=O)N(C)C [Example 93, 2-{4-[2-Fluoro-4-(2-trifluoromethyl-benzenesulfonylamino)-phenoxy]-6-methoxy-quinolin-7-yloxy}-N,N-dimethyl-acetamide] | ≤ 10 µM | 134 to 135 °C | ≤ 12.5 µM | ≤ 12.5 µM | ≤ 12.5 µM | ≤ 12.5 µM | ≤ 12.5 µM | ≤ 12.5 µM | ≤ 12.5 µM | ≤ 12.5 µM | ≤ 12.5 µM | ≤ 12.5 µM | 12.5 to 50 µM |  |  |  |  |
| COc1cc2c(Oc3ccc(NS(=O)(=O)c4ccccc4C(F)(F)F)cc3F)ccnc2cc1OCCCN1CCCCC1C (stereo not shown) [Example 99, N-(3-Fluoro-4-{6-methoxy-7-[3-(2-methyl-piperidin-1-yl)-propoxy]-quinolin-4-yloxy}-phenyl)-2-trifluoromethyl-benzenesulfonamide] | ≤ 10 µM | 115 to 116 °C | ≤ 12.5 µM | ≤ 12.5 µM | ≤ 12.5 µM | 12.5 to 50 µM | ≤ 12.5 µM | ≤ 12.5 µM | ≤ 12.5 µM | ≤ 12.5 µM | ≤ 12.5 µM | 12.5 to 50 µM | ≤ 12.5 µM | ≤ 12.5 µM | ≤ 12.5 µM | ≤ 12.5 µM | ≤ 12.5 µM |
| COc1cc2c(Oc3ccc(NS(=O)(=O)c4ccccc4C(F)(F)F)cc3F)ccnc2cc1OCCCN(C)C [Example 100, N-{4-[7-(3-Dimethylamino-propoxy)-6-methoxy-quinolin-4-yloxy]-3-fluoro-phenyl}-2-trifluoromethyl-benzenesulfonamide] | ≤ 10 µM | 89 to 91 °C | ≤ 12.5 µM |  | ≤ 12.5 µM | 12.5 to 50 µM | ≤ 12.5 µM | ≤ 12.5 µM | ≤ 12.5 µM | ≤ 12.5 µM | ≤ 12.5 µM | 12.5 to 50 µM | ≤ 12.5 µM | ≤ 12.5 µM | ≤ 12.5 µM | ≤ 12.5 µM | ≤ 12.5 µM |
